Tests used:
[1] = test system: Toxoplasma gondii; assay: MMV: A total of 100ul of inoculum was added to each well (parasite/cell ratio, ~10:1; final volume, 200 ul). Six hours after inoculation, nonadherent parasites were removed, and 100 ul of complete DMEM (1% penicillin-streptomycin, 3% FBS) supplemented with inhibitors at different concentrations (2-fold serial dilutions starting from 30 uM) was added to all except the negative-control wells. Positive controls, consisting of pyrimethamine (PYR) and sulfadiazine (SDZ) (20-mg/ml stocks in DMSO), were tested at a 2mg/ml final concentration. Each test was performed in triplicate.; type: functional, organism-based; settings: 6 h
[2] = test system: Entamoeba histolytica; assay: MMV: Primary screening was performed with each compound at a 30 uM final concentration and in triplicate in sealed 96-well polystyrene microtiter plates. Parasite inocula (100 ul) comprising 20000 parasites/ml were added to each well and grown at 37 degrees C in a humidified atmosphere of 5% CO2 for 72 h. Positive controls consisted of metronidazole at 1 mg/ml. The growth of E. histolytica trophozoites in each well was determined microscopically by measuring the diameters of the confluent cells in drug-containing wells relative to those in the nega- tive-control wells.; type: functional, organism-based

SMILES | IC50 [1] [µM] | IC50 [2] [µM]
Oc1ccc(Br)cc1CN1CCN(Cc2ccc(Cl)cc2)CC1 | 14.5 | > 30
COc1cc(C(=O)Nc2nc3c(cc4c5c(cccc53)CC4)s2)cc(OC)c1OC | > 30 | > 30
O=C(Nc1ccc(Cl)c(Cl)c1)Nc1ccc(Cl)c(Cl)c1 | > 30 | > 30
CCN1CCN(c2c(C(=O)c3ccccc3)cnc3cc(OC)c(OC)cc23)CC1 | > 30 | > 30
O=C(Nc1ccccc1O)c1ccc(Oc2cccc(C(=O)Nc3ccccc3O)c2)cc1 | 13.2 | > 30
C[n+]1c2ccccc2nc2ccc(NCCO)cc21 | > 30 | > 30
O=C(NNc1cc(N2CCCC2)nc(N2CCCC2)n1)c1ccccc1 | > 30 | > 30
COc1cc2c3cc1Oc1c(OC)c(OC)cc4c1C(Cc1ccc(O)c(c1)Oc1ccc(cc1)CC3N(C)CC2)N(C)CC4 (stereo not given) | > 30 | > 30
Cc1ccc(C2CC(C(F)(F)F)n3nc(C(=O)N4CCN(C(c5ccccc5)c5ccccc5)CC4)cc3N2)cc1 (stereo not given) | > 30 | > 30
COc1cc2c(cc1OC)C1=NNC(=O)C1=NC(C)(C)C2 | > 30 | > 30
O=C(CCc1ccco1)NC1CCN(CC2(c3ccc(Cl)cc3)CCC2)CC1 | 24 | > 30
O=C(NCC(c1ccsc1)N1CCCCCC1)c1ccc(C(F)(F)F)cc1 (stereo not given) | > 30 | > 30
O=C(Nc1ccccc1O)c1ccc(-c2ccc(Cl)cc2Cl)o1 | > 30 | > 30
c1ccc(Cn2c(N=Nc3c(Nc4ccccc4)ccc4ccccc34)nc3ccccc32)cc1 | 13.5 | > 30
Cc1cccc(N2C(=O)C3C(C2=O)C2(c4ccccc4)C(=O)C3(c3ccccc3)C(c3ccc4c(c3)OCO4)=C2c2ccc3c(c2)OCO3)c1 (stereo not given) | > 30 | > 30
CC1(c2ccccc2)Nc2ccccc2-c2nc3ccccc3n21 (stereo not given) | > 30 | > 30
CC(C)CNC(=O)c1c(N)n(CCc2ccccc2F)c2nc3ccccc3nc12 | 26.8 | > 30
Cn1c(=O)n(C)c2cc(CNCCNc3ccnc4cc(Cl)ccc34)ccc21 | > 30 | > 30
COc1ccc(NC(=O)C2c3ccccc3C(=O)N(CC(C)C)C2c2cccs2)cc1Cl (stereo not given) | > 30 | > 30
CCN(CC)CCNc1ncnc2c1[nH]c1ccc(Cl)cc12 | > 30 | > 30
Cc1cc(C)c2c(c1)OCN(Cc1ccccc1Cl)C2 | > 30 | > 30
O=C(NC1CCCC1)c1ccc(N2CCC(NCc3cccc(C(F)(F)F)c3)CC2)cc1 | > 30 | > 30

SMILES | IC50 [1] [µM] | IC50 [2] [µM]
COc1cccc(Nc2nc(NCCO)c3ccccc3n2)c1 | > 30 | > 30
COc1cc(OC)cc(N2C(=O)N(Cc3ccc(C(C)(C)C)cc3)c3ccccc3S2(=O)=O)c1 | > 30 | > 30
CCc1ccc(CNCC(O)c2ccccc2)cc1 (stereo not given) | > 30 | > 30
Oc1ccc(-c2nc(-c3ccc4oc5ccc(-c6[nH]c(-c7ccc(O)cc7)nc6-c6ccccc6)cc5c4c3)c(-c3ccccc3)[nH]2)cc1 | > 30 | > 30
CC1CCN(Cc2ccc(NC(=O)c3cc4ccc5cccnc5c4[nH]3)cc2)CC1 | > 30 | > 30
CCCCNc1nc(NC(C)(C)C)nc(NC(C)(C)C)n1 | > 30 | > 30
Nc1ccn([C@@H]2O[C@H](CO)[C@@H](O)[C@H]2O)c(=O)n1 [CYTIDINE] | > 30 | > 30
COc1ccc(C2=C(c3ccc(OC)cc3)C3(c4ccccc4)C(=O)C2(c2ccccc2)C2C(=O)N(c4ccc(C)cc4)C(=O)C23)cc1 (stereo not given) | > 30 | > 30
CN(C)c1ccc(-c2nc3cc(N)ccc3[nH]2)cc1 | > 30 | > 30
CCOc1ccc(/C=C/c2nc(=O)c3ccccc3o2)cc1 | > 30 | > 30
CCOc1ccccc1NC(=O)CN1CCN(C(=O)c2ccco2)CC1 | 0.19 | > 30
CCOc1ccc2nc(C)cc(Nc3ccc(Br)cc3)c2c1 | > 30 | > 30
Cc1ccccc1OCCSc1nc2ccc(NC(=O)c3ccccc3)cc2s1 | > 30 | > 30
CCCc1cc(O)c2c3c(c(=O)oc2c1)CN(C)CC3 | > 30 | > 30
CCN1CCN(c2cc(C)c3cc(NC(=O)c4ccc(OC)c(OC)c4)ccc3n2)CC1 | > 30 | > 30
COc1ccc(C)c2sc(N(Cc3cccnc3)C(=O)c3ccc(C#N)cc3)nc12 | > 30 | > 30
C=CC12CCN(CC1)C(C(O)c1ccnc3ccc(OC)cc13)C2 (stereo not given) | > 30 | > 30
CN(C)CCCNc1c2ccccc2nc2ccccc12 | 25.8 | > 30
COc1ccc(C2N(C)c3ccccc3N2C)cc1 | > 30 | > 30
CCOC(=O)c1cnc2ccc(OC)cc2c1NCc1ccccc1 | > 30 | > 30
CCCCOc1ccc(C(=O)Nc2cc(C)on2)cc1 | > 30 | > 30
Cc1ccc(N2C(=O)C3C(C2=O)C2(c4ccccc4)C(=O)C3(c3ccccc3)C(c3ccccc3)=C2c2ccccc2)cc1 (stereo not given) | > 30 | > 30

SMILES | IC50 [1] [µM] | IC50 [2] [µM]
FC(F)(F)c1ccc(Nc2nnnc3ccccc23)cc1 | > 30 | > 30
Cc1[nH]c(-c2ccc(F)cc2)cc1C(=O)NC1CCN(Cc2ccccc2)CC1 | > 30 | > 30
COc1cc(-c2nc(-c3ccc(Sc4ccccc4)cc3)c(-c3ccccc3)[nH]2)cc(OC)c1O | 5.85 | > 30
CCOC(=O)c1cnc2ccc(Cl)cc2c1NCCCN(C)C | > 30 | > 30
Nc1nc(Nc2cccc(F)c2)nc2ccccc12 | 29 | > 30
COc1ccc2nc(N)nc(C)c2c1 | > 30 | > 30
Cc1cc(Nc2ccc(OCc3ccccc3)cc2)nc2cc(O)ccc12 | > 30 | > 30
COc1ccc2c(=O)cc(C(Cl)(Cl)Cl)oc2c1 | 6.45 | > 30
COc1ccc(C2C(C(=O)Nc3cccc(OC)c3)c3ccccc3C(=O)N2C2CCCCC2)cc1 (stereo not given) | > 30 | > 30
O=C(NCc1ccco1)C1CCN(S(=O)(=O)c2ccc(Cl)cc2)CC1 | > 30 | > 30
Oc1c(CN2CCN(c3ccccc3F)CC2)cc(Br)c2cccnc12 | > 30 | > 30
N=c1n(CCN2CCCCC2)c2ccccc2n1CC(=O)c1ccc(Cl)c(Cl)c1 | > 30 | > 30
COc1ccccc1N1CCN(C(CNS(=O)(=O)c2ccc(Cl)cc2)c2cccnc2)CC1 (stereo not given) | > 30 | > 30
c1ccc(/C2=N/c3ccccc3/N=C(/c3ccccc3)c3ccccc32)cc1 | > 30 | > 30
CCC1(C)CC(CCNCc2ccccc2O)(c2ccc(C)cc2)CCO1 (stereo not given) | > 30 | > 30
CN1CCN(c2c3c(c(C#N)c4nc5ccccc5n24)CCC3)CC1 | > 30 | > 30
CCOc1cccc(C(=O)Nc2ccc(-c3nc4ccccc4[nH]3)cc2)c1 | > 30 | > 30
CC1CN(C(=O)c2sc3ccccc3c2Cl)CC(C)O1 (stereo not given) | > 30 | > 30
Cc1ccc(CSCc2ccc(C(=O)NC3CC3)o2)cc1 | 22.3 | > 30
COc1ccc(-c2nc(NC(=O)CS(=O)(=O)c3ccc(F)cc3)sc2C)cc1 | > 30 | > 30
CN(C)CCNc1cc(-c2ccccc2)nc2ccccc12 | 3.05 | > 30
CCOc1cc2c(cc1OCC)C(c1cc(C)c(O)c(C)c1)NCC2 (stereo not given) | 12.8 | > 30

SMILES | IC50 [1] [µM] | IC50 [2] [µM]
Oc1ccc(Br)cc1CN1CCN(Cc2cccc(F)c2)CC1 | > 30 | > 30
Cc1ccc(Nc2nc(-c3ccccn3)cs2)cc1 | > 30 | > 30
CCOC(=O)c1cnc2c(C)cc(C)cc2c1Nc1ccc(OC)c(OC)c1 | > 30 | > 30
Oc1ccc(C(=C(Cl)Cl)c2ccc(O)cc2)cc1 | > 30 | > 30
COc1ccc(C(=O)Nc2nonc2-c2ccc(OC)c(OC)c2)cc1Cl | > 30 | > 30
Cc1cc(Nc2cccc(F)c2)nc(NCc2ccccc2)n1 | > 30 | > 30
FC(F)(F)c1cccc(Nc2nc3ccccc3nc2Nc2cccc(C(F)(F)F)c2)c1 | > 30 | > 30
CCN(CC)CCNc1ccnc2cc(Cl)ccc12 | > 30 | > 30
CCOc1cc(Cl)c(C(C)NC(=O)c2cccc(OC)c2)cc1OCC (stereo not given) | > 30 | > 30
COc1ccc(C=C2SC(=N)N(c3ccccc3OC)C2=O)cc1 | > 30 | > 30
Clc1ccc2[nH]c3c(NCCCN4CCOCC4)ncnc3c2c1 | > 30 | > 30
Cc1ccc(-c2cc3c(nn2)-c2ccccc2C3=O)cc1 | > 30 | > 30
CCn1nc(-c2ccc(C(=O)OC)cc2)nc2c(=O)n(C)c(=O)nc1-2 | > 30 | > 30
COc1cccc(NC(=O)[C@H](C(C)C)n2c(=O)[nH]c3ccccc3c2=O)c1 | > 30 | > 30
OC1CCCCC1C1(NC(=S)Nc2ccccc2)CCCCC1 (stereo not given) | > 30 | > 30
CCOC(=O)c1cn(CC)c2cc(N3CCCCC3)c(F)cc2c1=O | > 30 | > 30
Cc1ccc(Cl)cc1N1CCN(CCCNC(=O)C2CCN(c3nc4ccccc4[nH]3)CC2)CC1 | > 30 | > 30
O=c1c2c([nH]c3ccccc13)CCCC2 | > 30 | > 30
CCOC(=O)c1ccc2nc(-c3ccccc3)cc(O)c2c1 | > 30 | > 30
